The values that follow come from ChEMBL document CHEMBL3232942, “Benzophenone C-glucosides and gallotannins from mango tree stem bark with broad-spectrum anti-viral activity” (Bioorg Med Chem, 2014).

Activity calls are given as the source filed them. No cut-off for these calls is given here.

For assay [1], the target named is Genome polyprotein (Coxsackievirus B3 (strain Nancy)) (UniProt P03313). Description: Inhibition of His-6-tagged Coxsackievirus B3 3C protease expressed in Escherichia coli BL21(DE3) using Asp-Glu-EDANS-(5-((2-aminoethyl)amino)naphthalene-1-sulfonic acid)-MSAIFQGPISK-DABCYL (4-((4-(dimethylamino)phenyl)azo)benzoic acid) as peptide substrate at 100 uM by fluorescence-based […] assay.

The target in assay [2] is Neuraminidase (Influenza A virus, UniProt Q194T1). Description: Inhibition of Influenza A virus (A/RI/5+/1957(H2N2)) recombinant neuraminidase using MUNANA as substrate after 30 mins.
Assay [3] addresses Genome polyprotein (Coxsackievirus B3 (strain Nancy), UniProt P03313). The assay is described as follows: Inhibition of His-6-tagged Coxsackievirus B3 3C protease expressed in Escherichia coli BL21(DE3) using Asp-Glu-EDANS-(5-((2-aminoethyl)amino)naphthalene-1-sulfonic acid)-MSAIFQGPISK-DABCYL (4-((4-(dimethylamino)phenyl)azo)benzoic acid) as peptide substrate by fluorescence-based […] assay.

Assay [4] has as its system HepG2. Description: Cytotoxicity against human HepG2 cells assessed as cell viability after 48 hrs by MTT assay. To be noted: HepG2, 48 h. It counts as cell-based.
The subject of assay [5] is HeLa. Description: Cytotoxicity against human HeLa cells assessed as cell viability after 48 hrs by MTT assay. It is filed as cell-based.

Regarding `COc1cc(O)c(C(=O)c2ccc(O)cc2)c(O)c1[C@@H]1O[C@H](CO)[C@@H](O)[C@H](O)[C@H]1OC(=O)c1ccc(O)cc1`, the inhibition in assay [1] was determined as 27.2%. With `O=C(OC[C@H]1O[C@@H](O)[C@H](OC(=O)c2cc(O)c(O)c(O)c2)[C@@H](OC(=O)c2cc(O)c(O)c(O)c2)[C@@H]1OC(=O)c1cc(O)c(O)c(O)c1)c1cc(O)c(O)c(O)c1`, the IC50 turned out to be 9.2 µM in assay [2], 2 µM in assay [3], 151 µM in assay [4] and 240 µM in assay [5]. Also, in assay [1], the inhibition was found to be 100%. `O=C(O[C@@H]1O[C@H](CO)[C@@H](O)[C@H](O)[C@H]1O)c1cc(O)c(O)c(O)c1` came in with an inhibition in assay [1] of 23.6%. With `CO[C@@H]([C@@H]1OC(C(=O)O)=C[C@H](NC(=N)N)[C@H]1NC(C)=O)[C@H](O)CO`, the concentration for half-maximal inhibition (IC50) in assay [2] stood at 3.1 µM. `COc1cc(O)c(C(=O)c2ccc(O)cc2)c(O)c1[C@@H]1O[C@H](CO)[C@@H](O)[C@H](O)[C@H]1O` yielded an inhibition in assay [1] of 17.5%. Regarding `O=C(OC[C@H]1O[C@@H](OC(=O)c2cc(O)c(O)c(O)c2)[C@H](OC(=O)c2cc(O)c(O)c(O)c2)[C@@H](OC(=O)c2cc(O)c(O)c(O)c2)[C@@H]1OC(=O)c1cc(O)c(O)c(O)c1)c1cc(O)c(O)c(O)c1` [PENTAGALLOYL GLUCOSE], the IC50 in assay [2] was 11.9 µM; in assay [3], 1.1 µM; in assay [4], 92.4 µM; in assay [5], 356 µM. In assay [1], the inhibition amounted to 100%. With `O=C(O)c1cc(O)c(O)c(O)c1`, in assay [1], the inhibition result is “inactive”. Same read-out and setting: for `O=C(OC(=O)c1ccc(O)c(O)c1)c1ccc(O)c(O)c1` the value was “inactive”; for `COc1cc2oc3cc(O)c(O)cc3c(=O)c2c(O)c1[C@@H]1O[C@H](CO)[C@@H](O)[C@H](O)[C@H]1O`, 13.3%. For `O=C(O[C@@H]1C[C@](O)(C(=O)O)C[C@@H](O)[C@H]1O)c1cc(O)c(O)c(O)c1`, the inhibition in assay [1] was found to be 29.8%.

In assay [1], `COc1cc(O)c(C(=O)c2ccc(O)cc2)c(O)c1[C@@H]1O[C@H](CO)[C@@H](O)[C@H](O)[C@H]1OC(=O)c1cc(O)c(O)c(O)c1` had an inhibition of 53.8%. The same measure, in the same setting: for `COc1cc(O)c(C(=O)c2ccc(O)cc2)c(O[C@@H]2O[C@H](CO)[C@@H](O)[C@H](O)[C@H]2O)c1` the value was “inactive”.

Regarding `CCOC(=O)C1=C[C@@H](OC(CC)CC)[C@H](NC(C)=O)[C@@H](N)C1` [OSELTAMIVIR PHOSPHATE], in assay [2], the IC50 worked out at 0.8 µM.

In assay [1], `O=c1c2cc(O)c(O)cc2oc2cc(O)c([C@@H]3O[C@H](CO)[C@@H](O)[C@H](O)[C@H]3O)c(O)c12` displayed an inhibition of 21.4%. Still for that read-out and setting: for `O=c1c2cc(O)c(O)cc2oc2c(-c3c(O)c([C@@H]4O[C@H](CO)[C@@H](O)[C@H](O)[C@H]4O)c(O)c4c(=O)c5cc(O)c(O)cc5oc34)c(O)c([C@@H]3O[C@H](CO)[C@@H](O)[C@H](O)[C@H]3O)c(O)c12` the value was 46.1%.
